From patent US8097585B2, “Methods of treating inflammation by administration of heme oxygenase-1 and products of heme degradation” (priority 2002, dated 2012)
Where a name gives a salt, the structure may show the parent alone.

Key:
intestinal graft [1] = assay: Graft permeability, everted gut sac method with FD4; format: in vivo, LEW rats; conditions: BV treated grafts
Procedure: Graft permeability. The preparation of everted gut sacs was performed in ice-cold modified Krebs-Henseleit bicarbonate buffer [KHBB (pH 7.4)] consisting of 10 mM HEPES, 137.0 mM NaCl, 5.36 mM KCl, 4.17 mM NaHCO3, 0.34 mM Na2HPO4, 0.44 mM KH2PO4, 0.41 mM MgSO47H2O, 0.49 mM MgCl26H20, 1.26 mM CaCl2, and 19.45 mM glucose. One end of the gut segment was ligated with 4-0 silk. The resulting gut sac was everted using a thin plastic rod. A groove was cut into the tip of a 5 ml plastic syringe and 1.5 mL of KHBB was drawn into the syringe. The open end of the everted gut sac was secured to the groove using 4-0 silk, and the intestine was gently distended by injecting the KHBB from the syringe. […] Following a 30 min incubation, the length of the sac was measured, and 1.0 mL of the fluid within the gut sac was collected. […] Subsequently, 300 ul of the supernatant was diluted with 3.0 mL of phosphate buffered saline, and the fluorescence of the solution was measured using a Perkin-Elmer LS-50 fluorescence spectrophotometer (Palo Alto, Calif.) at an excitation wave length of 492 nm (slit width=10.0 nm) and an emission wavelength of 515 nm (slit width=[…]).
Graft permeability. […] Graft permeability was determined by the everted gut sac method using 4 Kd Fluorescein isothiocyanate dextran.

fulminant hepatitis = assay: TNF-α/D-Galactosamine hepatitis model, serum ALT; format: in vivo, mice (C57BL/6J)
Procedure: Male mice (C57BL/6J) were administered biliverdin ([…], i.p.) 16 hours and 1 hour prior to i.p. injection of a cocktail including 0.3 ug/mouse TNF-α (mouse TNF-α; Gibco) and 250 mg/kg, i.p. D-Galactosamine (Sigma), which induces fulminant hepatitis within 6-10 hours. Control mice received PBS vehicle. Serum samples were taken via cardiac puncture 6-8 hours later and analyzed for alanine aminotransferase (ALT) per an ALT assay kit from Sigma Chem. Co. following the manufacturer's directions.

IL-10 = assay: Endotoxic shock (LPS) model, serum IL-10; format: in vivo, Sprague-Dawley rats; conditions: biliverdin i.p. […] 17 h and 1 h prior to and 8 h after LPS
Procedure: Treatment Protocol. Endotoxin (lipopolysaccharide/LPS; Sigma; E. coli serotype 0128:B7; 3 mg/kg, i.v.) was administered to male Sprague-Dawley, resulting in an acute non-lethal inflammation. In rats, a sublethal dose of LPS results in a moderate lung inflammation characterized by neutrophil accumulation and protein accumulation in the airspace, both markers of lung inflammation. The pro-inflammatory cytokine TNF-alpha increases very rapidly in the serum, peaking by 60-90 minutes. This is followed by increases in IL-10, a prototypical anti-inflammatory cytokine that peaks 8-12 hr later.
Administration of Biliverdin. Biliverdin (Frontier Scientific: prepared in PBS following solubilization in NaOH) was administered i.p. at […] 17 hours prior to, one hour prior to, and eight hours after LPS administration.
Bronchoalveolar Lavage. A bronchoalveolar lavage (BAL) was performed 24 hours after LPS administration. Serum cytokines were measured using commercially available ELISA kits (R&D Systems Inc.) per the manufacturer's instructions. Total protein was determined via a standard Bradford assay based on a standard curve. […] Total cell count was determined as well as differential analysis of cell type and morphology via Diff-Quik® Fixative (American Scientific Products) staining of a sample of the lavagate.

intestinal graft [2] = assay: Intestinal microvascular blood flow (laser Doppler); format: in vivo, LEW rats; conditions: BV
Procedure: Measurement of Intestinal Blood Flow. Intestinal microvascular blood flow was monitored by placing the flat probe of a laser Doppler flowmeter (BLF 21D, Transonic Systems, Ithaca, N.Y.) on the serosal surface of the graft jejunum and ileum adjacent to the mesenteric border. Blood flows in SMA and marginal artery (MA) were also analyzed.
Measurement of Intestinal Blood Flow. Microvascular blood flow for in grafts preserved for 6 hours was measured using a laser Doppler flowmeter (BLF 21D, Transonic Systems, Ithaca, N.Y.) equipped with a flat probe. Intestinal microvascular blood flow was monitored by placing the probe on the serosal surface of the graft jejunum and ileum adjacent to the mesenteric border.

SITx recipients = assay: Animal survival after SITx with 6 hours cold preservation; format: in vivo, LEW rats; conditions: 14 days follow-up; 8/8; saline control 57.1%
Procedure: Small Intestinal Transplantation. Orthotopic small intestinal transplantation (SITx) was performed in syngeneic Lewis rats. SITx with caval drainage was performed using a previously described procedure (Murase et al., in Handbook of Animal Models in Transplantation Research, Cramer et al., Eds. CRC Press, Boca Raton, Fla., pp. 203-213 (1994)). […] The graft was perfused via the aortic segment with 5 ml chilled Ringer's lactate solution, and the intestinal lumen was irrigated with 20 ml of cold saline solution containing 0.5% neomycin-sulfate (Sigma, St. Louis, Mo.). End-to-side anastomoses between the graft aorta and the recipient infrarenal aorta, and between the graft portal vein and recipient vena cava, were performed with 10-0 Novafil™ suture. […] The entire recipient intestine was removed and the enteric continuity was restored by proximal and distal end-to-end intestinal anastomoses. Recipient animals were given 20 mg/day prophylactic cefamandole nafate for 3 postoperative days. Transplanted recipients were given water 3 hours after surgery, and were fed 24 hours after surgery.
Animal survival. Six hours of cold preservation in UW of the intestinal graft induced intestinal dysfunction in untreated recipients; 3 out of 14 control animals died within 24 hours and an additional 3 animals died 5 and 7 days after SITx due to bowel obstruction secondarily to intestinal I/R injury. […]

For `C=CC1=C(C)/C(=C/C2=NC(=C\c3[nH]c(/C=C4\NC(=O)C(C)=C4C=C)c(C)c3CCC(=O)O)/C(CCC(=O)O)=C2C)NC1=O` [biliverdin, biliverdin dihydrochloride], which “inhibition of the increase of intestinal permeability” value (intestinal graft [1]) is on record?
The value was about 60%.

What about the “serum ALT” value (fulminant hepatitis; 6-8 hours after TNF-α/D-Galactosamine, control about 1000, normal 20-30) of the same molecule?
Its value is about 100 IU/ml.

What about the “reduction of serum ALT levels compared to vehicle treated controls” value (fulminant hepatitis; biliverdin 50 mmol/kg i.p. 16 hours and 1 hour prior to TNF-α/D-Galactosamine) of the same molecule?
The value was “more than 90%”.

And the IL-10 level (IL-10)?
The IL-10 level was “augmentation”.

What about the “microvascular blood flow following transplantation” value (intestinal graft [2]) of the same molecule?
The value was “had no effect”.

What about the overall animal survival (SITx recipients) of the same molecule?
The overall animal survival was 100%.
